# According to ChEMBL document CHEMBL1133986, “Design and synthesis of new potent human cytomegalovirus (HCMV) inhibitors based on internally hydrogen-bonded 1,6-naphthyridines” (Bioorg Med Chem Lett, 2001):
# Columns and labels:
# Hs68 [1] = assay: Cytotoxicity against the Hs 68 cell line; assay type: functional; settings: Homo sapiens
# Hs68 [2] = assay: Inhibitory activity against Human cytomegalovirus (HCMV) in Hs 68 cell line determined by plaque reduction assay; assay type: functional, cell-based
Compound,CC50 (Hs68 [1]) [µg/mL],IC50 (Hs68 [2]) [µg/mL]
CC(C)Oc1ccccc1CNC(=O)Nc1ccc2cnccc2n1,18.9,0.01
COc1ccccc1C/N=C(\S)c1ccc2cnccc2n1,8.1,0.93
CCOc1ccccc1C/N=C(\S)c1ccc2cnccc2n1,4.6,0.1
O=C(Nc1ccccc1)Nc1ccc2cnccc2n1,> 100,> 25
COc1ccccc1CNC(=O)Nc1ccc2cnccc2n1,13,1
CC(C)Oc1ccccc1NC(=O)Nc1ccc2cnccc2n1,30.2,0.03
COc1ccccc1NC(=O)Nc1ccc2cnccc2n1,33.9,1.2
CCOc1ccccc1NC(=O)Nc1ccc2cncc(Br)c2n1,9.3,0.46
CCOc1ccccc1NC(=O)Nc1nc2ccncc2cc1C#N,< 25,> 25
O=C(NCc1ccccc1)Nc1ccc2cnccc2n1,0.37,0.29
CCOc1ccccc1NC(=O)Nc1ccc2cnccc2n1,1.7,0.14
CC(C)Oc1ccccc1C/N=C(\S)c1ccc2cnccc2n1,11.1,0.16
CCOc1ccccc1NC(=O)Nc1nc2ccncc2cc1C,> 100,> 25
